{"source": "patent US20210301315A1", "about": "“METHODS FOR TREATING POLYMICROBIAL INFECTIONS” (priority 2017, published 2021)", "key": {"[1]": {"test_system": "E. faecalis and E. coli", "test": "P-AST species-pair interaction on antibiotic resistance (logistic regression, HSAP/UP)", "format": "cell-based, Enterococcus faecalis; Escherichia coli", "conditions": "E. faecalis and E. coli together v. expected from each species alone (HSAP/UP)", "description": "(§1) The Pooled Antibiotic Sensitivity Test (P-AST) is permitting the organisms identified to grow in the presence of antibiotics and measuring the minimum concentration of antibiotic to inhibit growth. Antibiotic susceptibility testing is performed when at least a single organism within a pool of organisms reaches a certain threshold, (e.g., at least 3,000 cells/ml, at least 5,000 cells/ml, at least 10,000 cells/ml, etc.) and can grow in the presence of the antibiotic in the assay within the time of testing. (Note: 10,000 cells/ml is equivalent to 10,000 CFU/ml.) The present invention is not limited to a 10,000 cells/mL threshold. These pools of organism(s) are inoculated into growth medium then placed onto an antibiotic laden “spec plate” that is then incubated and analyzed for growth. The breakpoints are derived from the CLSI breakpoints.\n(§2) P-AST was performed by aliquoting 1 mL of patient urine specimen into a 1.7 mL microcentrifuge tube. After centrifugation, the supernatant was aspirated and discarded, leaving approximately 100 or 50 μL (minimum volume left above pellet created from centrifugation) of patient sample in the microcentrifuge tube. […] Optical density of samples was then read on a DensiCHEK plate reader. […] A spectrophotometer (plate reader) is used to measure optical density of the samples in wells of antibiotics and inoculum in order to determine if there is growth in a well. […]"}, "[2]": {"test_system": "E. faecalis and K. pneumoniae", "test": "P-AST species-pair interaction on antibiotic resistance (logistic regression, HSAP/UP)", "format": "cell-based, Enterococcus faecalis; Klebsiella pneumoniae", "conditions": "E. faecalis and K. pneumoniae together v. expected from each species alone (HSAP/UP)", "description": "as §1, §2"}, "[3]": {"test_system": "E. faecalis and P. aeruginosa", "test": "P-AST species-pair interaction on antibiotic resistance (logistic regression, HSAP/UP)", "format": "cell-based, Enterococcus faecalis; Pseudomonas aeruginosa", "conditions": "E. faecalis and P. aeruginosa together v. expected from each species alone (HSAP/UP)", "description": "as §1, §2"}, "[4]": {"test_system": "E. faecalis and P. mirabilis", "test": "P-AST species-pair interaction on antibiotic resistance (logistic regression, HSAP/UP)", "format": "cell-based, Enterococcus faecalis; Proteus mirabilis", "conditions": "E. faecalis and P. mirabilis together v. expected from each species alone (HSAP/UP)", "description": "as §1, §2"}, "[5]": {"test_system": "bacteria detected in patient urine specimens", "test": "Pooled Antibiotic Susceptibility Testing (P-AST) of urine specimens, polymicrobial v. monomicrobial (logistic regression)", "format": "cell-based", "conditions": "polymicrobial urine specimens", "excerpt": "The present invention describes Pooled Antibiotic Susceptibility Testing (P-AST), which involves simultaneously growing all detected bacteria together in the presence of antibiotics and then measuring susceptibility. […] Urine specimens were obtained from patients presenting with UTI-like symptoms to 37 urology clinics. The odds of resistance were estimated for 18 antibiotics relative to increasing numbers of bacterial species in a specimen.\nThe following study combines data from two studies of antibiotic resistance patterns in elderly patients presenting with symptoms consistent with a UTI. […] All subjects met the following inclusion and exclusion criteria. Inclusion criteria included: symptoms of acute cystitis, complicated UTI, persistent UTI, recurrent UTI, prostatitis, pyelonephritis, interstitial cystitis (at any age), symptoms of other conditions at years of age, specimen volumes sufficient to permit urine culture and Multiplex Polymerase Chain Reaction (M-PCR) combined with Pooled Antibiotic Sensitivity Testing (P-AST), patient informed consented, documented times at which the specimens were collected and stabilized with boric acid in grey-top tubes. Exclusion criteria included prior participation in this study, antibiotics taken for any reason other than UTI at the time of enrollment, chronic (≥10 days) indwelling catheters, self-catheterization, and urinary diversion.\n(§6) The Pooled Antibiotic Sensitivity Test (P-AST) is permitting the organisms identified to grow in the presence of antibiotics and measuring the minimum concentration of antibiotic to inhibit growth. Antibiotic susceptibility testing is performed when at least a single organism within a pool of organisms reaches a certain threshold, (e.g., at least 3,000 cells/ml, at least 5,000 cells/ml, at least 10,000 cells/ml, etc.) and can grow in the presence of the antibiotic in the assay within the time of testing. […] These pools of organism(s) are inoculated into growth medium then placed onto an antibiotic laden “spec plate” that is then incubated and analyzed for growth. The breakpoints are derived from the CLSI breakpoints."}, "[6]": {"test_system": "Coagulase-negative Staphylococcus (CoNS) and K. pneumoniae", "test": "P-AST species-pair interaction on antibiotic resistance (logistic regression, HSAP/UP)", "format": "cell-based, Coagulase negative staphylococci; Klebsiella pneumoniae", "conditions": "CoNS and K. pneumoniae together v. expected from each species alone (HSAP/UP)", "description": "as §1\n(§3) P-AST was performed by aliquoting 1 mL of patient urine specimen into a 1.7 mL microcentrifuge tube. After centrifugation, the supernatant was aspirated and discarded, leaving approximately 100 or 50 μL (minimum volume left above pellet created from centrifugation) of patient sample in the microcentrifuge tube. One mL of Mueller Hinton Growth Media was then aliquoted into the patient sample in the microcentrifuge tube and the tubes were incubated at 35° C. in a non-CO2 incubator for 6 hours. Non-inoculated liquid MH-media is incubated as the negative control to confirm the media used is not contaminated. Those samples that reached a minimum threshold of 10,000 cells/mL were then diluted by aliquoting 0.5 mL of sample into a 50 mL conical tube containing Mueller Hinton Growth Media (in this example, the dilution was 1:60, e.g., 500 μL was added to 29.5 mL). 96-well plates pre-loaded with antibiotics were then inoculated with diluted samples and incubated along with control plates for 12-16 hours at 35° C. in a single layer. Optical density of samples was then read on a DensiCHEK plate reader. The DensiCHEK instrument is used to measure the concentration of turbid samples considered positive because PCR-ID result was >=10,000 cells/mL. The turbid samples were diluted/normalized to the same concentration and then added to a volume of liquid, e.g., 29.5 mL of liquid MH-media. A spectrophotometer (plate reader) is used to measure optical density of the samples in wells of antibiotics and inoculum in order to determine if there is growth in a well. The present invention is not limited to a concentration of 10,000 cells/mL.\nInteractions between pairs of bacterial species were investigated using a logistic regression model to predict resistance in the presence of specific bacterial species. […]"}, "[7]": {"test_system": "E. coli and S. agalactiae", "test": "P-AST species-pair interaction on antibiotic resistance (logistic regression, HSAP/UP)", "format": "cell-based, Escherichia coli; Streptococcus agalactiae", "conditions": "E. coli and S. agalactiae together v. expected from each species alone (HSAP/UP)", "description": "as §1, §3\n(§4) Interactions between pairs of bacterial species were investigated using a logistic regression model to predict resistance in the presence of specific bacterial species. Bacterial species that tested positive in at least 30 samples were considered in the regression model: these 16 species were A. schaalii, A. urinae, A. omnicolens, CoNS, C. riegelii, E. faecalis, E. coli, K. oxytoca, K. pneumoniae, M. morganii, P. mirabilis, P. aeruginosa, S. aureus, S. agalactiae, U. urealyticum, VGS. Backward stepwise model selection was performed on the model with all main effects and all pairwise interactions using an enter significance level of α=0.10 and an exit significance level of α=0.05 to obtain the best fitting model. This model was used to predict resistance rates when a specific organism was present or when a specific pair of organisms were present.\n(§5) Using the logistic regression model described above, the resistance rate for a pair of species was compared to the resistance rates for each species alone. […]"}, "[8]": {"test_system": "E. faecalis and S. agalactiae", "test": "P-AST species-pair interaction on antibiotic resistance (logistic regression, HSAP/UP)", "format": "cell-based, Enterococcus faecalis; Streptococcus agalactiae", "conditions": "E. faecalis and S. agalactiae together v. expected from each species alone (HSAP/UP)", "description": "as §1, §2"}, "[9]": {"test_system": "E. coli and P. mirabilis", "test": "P-AST species-pair interaction on antibiotic resistance (logistic regression, HSAP/UP)", "format": "cell-based, Escherichia coli; Proteus mirabilis", "conditions": "E. coli and P. mirabilis together v. expected from each species alone (HSAP/UP)", "description": "as §1, §3, §4, §5"}, "[10]": {"test_system": "E. coli and K. oxytoca", "test": "P-AST species-pair interaction on antibiotic resistance (logistic regression, HSAP/UP)", "format": "cell-based, Escherichia coli; Klebsiella oxytoca", "conditions": "E. coli and K. oxytoca together v. expected from each species alone (HSAP/UP)", "description": "as §1, §2"}, "[11]": {"test_system": "Coagulase-negative Staphylococcus (CoNS) and E. coli", "test": "P-AST species-pair interaction on antibiotic resistance (logistic regression, HSAP/UP)", "format": "cell-based, Coagulase negative staphylococci; Escherichia coli", "conditions": "CoNS and E. coli together v. expected from each species alone (HSAP/UP)", "description": "as §1, §2"}, "[12]": {"test_system": "Coagulase-negative Staphylococcus (CoNS) and E. faecalis", "test": "P-AST species-pair interaction on antibiotic resistance (logistic regression, HSAP/UP)", "format": "cell-based, Coagulase negative staphylococci; Enterococcus faecalis", "conditions": "CoNS and E. faecalis together v. expected from each species alone (HSAP/UP)", "description": "as §1, §2"}, "[13]": {"test_system": "Coagulase-negative Staphylococcus (CoNS) and S. agalactiae", "conditions": "CoNS and S. agalactiae together v. expected from each species alone (HSAP/UP)", "quoted_text": "as §6\nP-AST was performed by aliquoting 1 mL of patient urine specimen into a 1.7 mL microcentrifuge tube. After centrifugation, the supernatant was aspirated and discarded, leaving approximately 100 or 50 μL (minimum volume left above pellet created from centrifugation) of patient sample in the microcentrifuge tube. One mL of Mueller Hinton Growth Media was then aliquoted into the patient sample in the microcentrifuge tube and the tubes were incubated at 35° C. in a non-CO2 incubator for 6 hours. […] Those samples that reached a minimum threshold of 10,000 cells/mL were then diluted by aliquoting 0.5 mL of sample into a 50 mL conical tube containing Mueller Hinton Growth Media (in this example, the dilution was 1:60, e.g., 500 μL was added to 29.5 mL). 96-well plates pre-loaded with antibiotics were then inoculated with diluted samples and incubated along with control plates for 12-16 hours at 35° C. in a single layer. Optical density of samples was then read on a DensiCHEK plate reader. The DensiCHEK instrument is used to measure the concentration of turbid samples considered positive because PCR-ID result was >=10,000 cells/mL. The turbid samples were diluted/normalized to the same concentration and then added to a volume of liquid, e.g., 29.5 mL of liquid MH-media. A spectrophotometer (plate reader) is used to measure optical density of the samples in wells of antibiotics and inoculum in order to determine if there is growth in a well.\nInteractions between pairs of bacterial species were investigated using a logistic regression model to predict resistance in the presence of specific bacterial species. Bacterial species that tested positive in at least 30 samples were considered in the regression model: these 16 species were A. schaalii, A. urinae, A. omnicolens, CoNS, C. riegelii, E. faecalis, E. coli, K. oxytoca, K. pneumoniae, M. morganii, P. mirabilis, P. aeruginosa, S. aureus, S. agalactiae, U. urealyticum, VGS. […]"}}, "note": "“Also recorded” adds a separate entry of the source.", "data": [{"smiles": "C[C@@H](O)[C@H]1C(=O)N2C(C(=O)O)=C(S[C@@H]3CN[C@H](C(=O)N(C)C)C3)[C@H](C)[C@H]12", "note": "[Meropenem, meropenem]", "values": [{"measurement": "change in antibiotic resistance of the pair of organisms", "setting": "[1]", "value": "decrease in resistance; also recorded: decreased odds of resistance"}, {"measurement": "change in antibiotic resistance of the pair of organisms", "setting": "[2]", "value": "decrease in resistance; also recorded: decreased odds of resistance"}, {"measurement": "change in antibiotic resistance of the pair of organisms", "setting": "[3]", "value": "decrease in resistance; also recorded: decreased odds of resistance"}, {"measurement": "change in antibiotic resistance of the pair of organisms", "setting": "[4]", "value": "decrease in resistance; also recorded: decreased odds of resistance"}]}, {"smiles": "CC1(C)S[C@@H]2[C@H](NC(=O)[C@H](N)c3ccccc3)C(=O)N2[C@H]1C(=O)O", "note": "[Ampicillin, ampicillin]", "values": [{"measurement": "odds of resistance for each additional species identified (in words)", "setting": "[5]", "value": "increased"}, {"measurement": "change in antibiotic resistance of the pair of organisms", "setting": "[6]", "value": "reduced resistance"}, {"measurement": "change in antibiotic resistance of the pair of organisms", "setting": "[7]", "value": "decrease in resistance; also recorded: decreased odds of resistance"}, {"measurement": "change in antibiotic resistance of the pair of organisms", "setting": "[8]", "value": "decrease in resistance; also recorded: decreased odds of resistance"}]}, {"smiles": "CO[C@@]1(NC(=O)Cc2cccs2)C(=O)N2C(C(=O)O)=C(COC(N)=O)CS[C@@H]21", "note": "[Cefoxitin, cefoxitin]", "values": [{"measurement": "change in antibiotic resistance of the pair of organisms", "setting": "[9]", "value": "decrease in resistance; also recorded: decreased odds of resistance"}]}, {"smiles": "O=C(O)c1cn(C2CC2)c2cc(N3CCNCC3)c(F)cc2c1=O", "note": "[Ciprofloxacin, ciprofloxacin]", "values": [{"measurement": "change in antibiotic resistance of the pair of organisms", "setting": "[6]", "value": "decrease in resistance; also recorded: decreased odds of resistance"}, {"measurement": "change in antibiotic resistance of the pair of organisms", "setting": "[10]", "value": "decrease in resistance; also recorded: decreased odds of resistance"}, {"measurement": "change in antibiotic resistance of the pair of organisms", "setting": "[7]", "value": "decrease in resistance; also recorded: decreased odds of resistance"}]}, {"smiles": "CO/N=C(\\C(=O)N[C@@H]1C(=O)N2C(C(=O)O)=C(CSc3nc(=O)c(=O)[nH]n3C)CS[C@H]12)c1csc(N)n1", "note": "[Ceftriaxone, ceftriaxone]", "values": [{"measurement": "change in antibiotic resistance of the pair of organisms", "setting": "[11]", "value": "decrease in resistance; also recorded: decreased probability in resistance; also recorded: decreased odds of resistance"}, {"measurement": "change in antibiotic resistance of the pair of organisms", "setting": "[6]", "value": "decrease in resistance; also recorded: decreased odds of resistance"}, {"measurement": "change in antibiotic resistance of the pair of organisms", "setting": "[9]", "value": "decrease in resistance; also recorded: decreased odds of resistance"}, {"measurement": "change in antibiotic resistance of the pair of organisms", "setting": "[7]", "value": "decrease in resistance; also recorded: decreased odds of resistance"}]}, {"smiles": "CN[C@H](CC(C)C)C(=O)N[C@H]1C(=O)N[C@@H](CC(N)=O)C(=O)N[C@H]2C(=O)N[C@H]3C(=O)N[C@H](C(=O)N[C@H](C(=O)O)c4cc(O)cc(O)c4-c4cc3ccc4O)[C@H](O)c3ccc(c(Cl)c3)Oc3cc2cc(c3O[C@@H]2O[C@H](CO)[C@@H](O)[C@H](O)[C@H]2O[C@H]2C[C@](C)(N)[C@H](O)[C@H](C)O2)Oc2ccc(cc2Cl)[C@H]1O", "note": "[Vancomycin, vancomycin]", "values": [{"measurement": "odds of resistance for each additional species identified (in words)", "setting": "[5]", "value": "increased"}, {"measurement": "change in antibiotic resistance of the pair of organisms", "setting": "[12]", "value": "decrease in resistance; also recorded: decreased odds of resistance"}, {"measurement": "change in antibiotic resistance of the pair of organisms", "setting": "[8]", "value": "decrease in resistance; also recorded: decreased odds of resistance"}, {"measurement": "change in antibiotic resistance of the pair of organisms", "setting": "[13]", "value": "decrease in resistance; also recorded: decreased odds of resistance"}]}]}
